According to patent US6225322A, “Compounds useful for inhibition of farnesyl protein transferase” (Schering Corporation, priority 1998, dated 2001):

molecular target: farnesyl protein transferase (Homo sapiens, UniProt P49354+P49356); assay: FPT IC50 (inhibition of farnesyl protein transferase, in vitro enzyme assay); assay type: biochemical
Experimental: (§1) FPT IC50 (inhibition of farnesyl protein transferase, in vitro enzyme assay) and COS Cell IC50 (Cell-Based Assay) were determined following the assay procedures described in WO 95/10516, published Apr. 20, 1995. GGPT IC50 (inhibition of geranylgeranyl protein transferase, in vitro enzyme assay), Cell Mat Assay, and anti-tumor activity (in vivo anti-tumor studies) could be determined by the assay procedures described in WO 95/10516. The disclosure of WO 95/10516 is incorporated herein by reference thereto.

Structure (SMILES) | IC50 [nM]
O=C(Cc1cc[n+]([O-])cc1)N1CCC(C2c3ncccc3CCc3cccnc32)CC1 [Example 8, 4-(6,11-dihydro-5H-cyclohepta[2,1-b: 4,5-b']dipyridin-11-yl)-1-(4-pyridinylacetyl) n1-oxide piperidine] | > 1400
CCOC(=O)N1CCC(C2c3ncccc3CCc3cccnc32)CC1 [Example 6, ethyl 4-(6,11-dihydro-5H-cyclohepta[2,1-b:4,5-b']dipyridin-11-yl)-1-piperidinecarboxylate] | > 17000

The next compounds have a lower IC50 than those just listed; values first:

IC50 [nM] | Structure (SMILES)
28 | O=C(Cc1cc[n+]([O-])cc1)N1CCC(C2c3ncc(Br)cc3CCc3cc(Br)cnc32)CC1 [Example 13, 4-(3,8-dibromo-6,11-dihydro-5H-cyclohepta [2,1-b:4,5-b']dipyridin-11-yl)-1-(4-pyridinylacetyl) n1-oxide piperidine]
290 | O=C(Cc1cc[n+]([O-])cc1)N1CCC(C2c3ncccc3CCc3cc(Br)cnc32)CC1 (stereo not drawn) [Example 17, 4-(3-bromo-6,11-dihydro-5H-cyclohepta [2,1-b:4,5-b']dipyridin-11-yl)-1-(4-pyridinylacetyl) n1-oxide piperidine]
160 | Cc1cnc2c(c1)CCc1cccnc1C2C1CCN(C(=O)Cc2cc[n+]([O-])cc2)CC1 (stereo not drawn) [Example 18, 4-(3-methyl-6,11-dihydro-5H-cyclohepta [2,1-b:4,5-b']dipyridin-11-yl)-1-(4-pyridinylacetyl) n1-oxide piperidine]

test system: COS Cell; assay: COS Cell IC50 (Cell-Based Assay)
Experimental: as §1

Structure (SMILES) | IC50 [nM]
O=C(Cc1cc[n+]([O-])cc1)N1CCC(C2c3ncc(Br)cc3CCc3cc(Br)cnc32)CC1 [Example 13, 4-(3,8-dibromo-6,11-dihydro-5H-cyclohepta [2,1-b:4,5-b']dipyridin-11-yl)-1-(4-pyridinylacetyl) n1-oxide piperidine] | 125
